Some results are limits rather than exact numbers.

A short description of data set [1]: Metabolic stability in human liver microsomes assessed as compound remaining after 60 mins. Type of data set: ADME. Particulars: read-out: Stability.
Data set [2] is described as follows: Metabolic stability in rat liver microsomes assessed as compound remaining after 60 mins. The following applies: read-out: Stability. Format: ADME.
The target of data set [3] is cAMP and cAMP-inhibited cGMP 3',5'-cyclic phosphodiesterase 10A (Homo sapiens, UniProt Q9Y233). Kind of data set: Inhibition of human recombinant PDE10A using [3H]-cAMP/[3H]-cGMP as substrate after 30 mins by radiometric assay.
A short description of data set [4]: Drug uptake in Sprague-Dawley rat brain at 10 mg/kg, po after 30 mins. Type of data set: ADME, organism-based. The arrangement: dose 10 mg/kg, route oral. Particulars: read-out: Drug uptake.
Data set [5] in a line: Plasma concentration in Sprague-Dawley rat at 10 mg/kg, po after 30 mins. Type of data set: ADME, organism-based. The arrangement: dose 10 mg/kg, route oral.
A short description of data set [6]: Ratio of drug level in brain to plasma in Sprague-Dawley rat at 10 mg/kg, po after 30 mins. Format: ADME, organism-based. The arrangement: dose 10 mg/kg, route oral. The following applies: brain and plasma, read-out: BPR.
Data set [7] deals with Rattus norvegicus. As to the kind of experiment: Antipsychotic activity in Sprague-Dawley rat psychosis model assessed as inhibition of MK-801-induced hyperlocomotion at 1 mg/kg, ip administered 5 mins prior to MK-801-challenge measured after 15 mins up to 1 hr. Type of data set: functional. Particulars: route intraperitoneal.
Data set [8] is filed under the species Homo sapiens. As to the kind of experiment: Selectivity ratio of IC50 for PDE8A (unknown origin) to IC50 for human recombinant PDE10A.
Data set [9] is filed under the species Homo sapiens. As to the kind of experiment: Selectivity ratio of IC50 for PDE1A (unknown origin) to IC50 for human recombinant PDE10A.
For data set [10], the species on record is Homo sapiens. As to the kind of experiment: Selectivity ratio of IC50 for PDE4D (unknown origin) to IC50 for human recombinant PDE10A.
The target of data set [11] is cGMP-inhibited 3',5'-cyclic phosphodiesterase 3A (Homo sapiens) (UniProt Q14432). Kind of data set: Inhibition of PDE3A (unknown origin) using cAMP as substrate at 10 uM after 30 mins by HTRF method.
Data set [12] addresses cGMP-specific 3',5'-cyclic phosphodiesterase (Homo sapiens) (UniProt O76074). As to the kind of experiment: Inhibition of PDE5A (unknown origin) using [3H]-cGMP as substrate at 10 uM after 30 mins by radiometric assay.
The target in data set [13] is High affinity 3',5'-cyclic-AMP phosphodiesterase 7A (Homo sapiens) (UniProt Q13946). As to the kind of experiment: Inhibition of PDE7A1 (unknown origin) using [3H]-cAMP as substrate at 10 uM after 30 mins by radiometric assay.
The species named for data set [14] is Homo sapiens. Kind of data set: Selectivity ratio of IC50 for PDE2A (unknown origin) to IC50 for human recombinant PDE10A.
Data set [15] has as its target cGMP-dependent 3',5'-cyclic phosphodiesterase (Homo sapiens) (UniProt O00408). As to the kind of experiment: Inhibition of PDE2A (unknown origin) using cAMP as substrate at 10 uM after 30 mins by HTRF method.
Data set [16] is filed under the species Homo sapiens. Kind of data set: Selectivity ratio of IC50 for PDE11A (unknown origin) to IC50 for human recombinant PDE10A.
Data set [17] deals with High affinity cAMP-specific and IBMX-insensitive 3',5'-cyclic phosphodiesterase 8A (Homo sapiens) (UniProt O60658). As to the kind of experiment: Inhibition of PDE8A (unknown origin) using [3H]-cAMP as substrate at 10 uM after 30 mins by radiometric assay.
The species entered for data set [18] is Homo sapiens. Kind of data set: Selectivity ratio of IC50 for PDE5A (unknown origin) to IC50 for human recombinant PDE10A.
The target of data set [19] is High affinity cGMP-specific 3',5'-cyclic phosphodiesterase 9A (Homo sapiens) (UniProt O76083). Kind of data set: Inhibition of PDE9A2 (unknown origin) using [3H]-cGMP as substrate at 10 uM after 30 mins by radiometric assay.
Data set [20] concerns the target 3',5'-cyclic-AMP phosphodiesterase 4D (Homo sapiens) (UniProt Q08499). As to the kind of experiment: Inhibition of PDE4D (unknown origin) using cAMP as substrate at 10 uM after 30 mins.
The species entered for data set [21] is Homo sapiens. As to the kind of experiment: Selectivity ratio of IC50 for PDE9A2 (unknown origin) to IC50 for human recombinant PDE10A.
The target in data set [22] is Dual 3',5'-cyclic-AMP and -GMP phosphodiesterase 11A (Homo sapiens) (UniProt Q9HCR9). As to the kind of experiment: Inhibition of PDE11A (unknown origin) using [3H]-cAMP as substrate at 10 uM after 30 mins by radiometric assay.
Data set [23] is filed under the species Homo sapiens. As to the kind of experiment: Selectivity ratio of IC50 for PDE3A (unknown origin) to IC50 for human recombinant PDE10A.
Data set [24] is filed under the species Homo sapiens. As to the kind of experiment: Selectivity ratio of IC50 for PDE7A1 (unknown origin) to IC50 for human recombinant PDE10A.

Sequence of cAMP and cAMP-inhibited cGMP 3',5'-cyclic phosphodiesterase 10A (Q9Y233 whole entry): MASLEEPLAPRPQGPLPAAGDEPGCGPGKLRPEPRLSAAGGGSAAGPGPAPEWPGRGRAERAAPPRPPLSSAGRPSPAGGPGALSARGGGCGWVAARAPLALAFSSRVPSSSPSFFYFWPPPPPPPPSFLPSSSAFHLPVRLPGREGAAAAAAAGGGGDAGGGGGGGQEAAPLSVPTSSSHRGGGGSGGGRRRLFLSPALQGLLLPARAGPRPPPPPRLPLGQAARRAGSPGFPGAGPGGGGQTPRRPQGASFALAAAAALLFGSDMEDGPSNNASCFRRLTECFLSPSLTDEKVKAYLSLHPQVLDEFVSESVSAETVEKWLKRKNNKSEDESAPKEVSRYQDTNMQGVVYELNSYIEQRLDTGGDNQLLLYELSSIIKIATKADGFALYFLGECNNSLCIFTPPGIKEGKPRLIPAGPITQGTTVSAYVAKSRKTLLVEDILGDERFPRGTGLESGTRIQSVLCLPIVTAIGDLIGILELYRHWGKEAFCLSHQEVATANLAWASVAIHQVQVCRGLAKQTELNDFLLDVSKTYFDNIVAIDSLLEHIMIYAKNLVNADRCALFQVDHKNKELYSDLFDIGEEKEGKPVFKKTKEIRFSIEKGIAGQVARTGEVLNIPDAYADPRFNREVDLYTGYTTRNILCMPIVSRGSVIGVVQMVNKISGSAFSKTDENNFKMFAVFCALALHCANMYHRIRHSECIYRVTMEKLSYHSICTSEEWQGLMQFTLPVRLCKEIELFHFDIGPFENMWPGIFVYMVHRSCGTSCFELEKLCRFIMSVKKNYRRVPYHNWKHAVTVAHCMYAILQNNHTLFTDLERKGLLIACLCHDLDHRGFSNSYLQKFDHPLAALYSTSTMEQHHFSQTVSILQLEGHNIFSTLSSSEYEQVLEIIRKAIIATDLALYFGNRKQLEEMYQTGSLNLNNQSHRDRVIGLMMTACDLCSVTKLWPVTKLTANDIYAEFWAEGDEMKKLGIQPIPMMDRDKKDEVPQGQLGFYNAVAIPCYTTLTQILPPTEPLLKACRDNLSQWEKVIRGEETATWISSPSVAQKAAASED
Sequence of Dual 3',5'-cyclic-AMP and -GMP phosphodiesterase 11A (Homo sapiens) (Q9HCR9 whole entry, looked up): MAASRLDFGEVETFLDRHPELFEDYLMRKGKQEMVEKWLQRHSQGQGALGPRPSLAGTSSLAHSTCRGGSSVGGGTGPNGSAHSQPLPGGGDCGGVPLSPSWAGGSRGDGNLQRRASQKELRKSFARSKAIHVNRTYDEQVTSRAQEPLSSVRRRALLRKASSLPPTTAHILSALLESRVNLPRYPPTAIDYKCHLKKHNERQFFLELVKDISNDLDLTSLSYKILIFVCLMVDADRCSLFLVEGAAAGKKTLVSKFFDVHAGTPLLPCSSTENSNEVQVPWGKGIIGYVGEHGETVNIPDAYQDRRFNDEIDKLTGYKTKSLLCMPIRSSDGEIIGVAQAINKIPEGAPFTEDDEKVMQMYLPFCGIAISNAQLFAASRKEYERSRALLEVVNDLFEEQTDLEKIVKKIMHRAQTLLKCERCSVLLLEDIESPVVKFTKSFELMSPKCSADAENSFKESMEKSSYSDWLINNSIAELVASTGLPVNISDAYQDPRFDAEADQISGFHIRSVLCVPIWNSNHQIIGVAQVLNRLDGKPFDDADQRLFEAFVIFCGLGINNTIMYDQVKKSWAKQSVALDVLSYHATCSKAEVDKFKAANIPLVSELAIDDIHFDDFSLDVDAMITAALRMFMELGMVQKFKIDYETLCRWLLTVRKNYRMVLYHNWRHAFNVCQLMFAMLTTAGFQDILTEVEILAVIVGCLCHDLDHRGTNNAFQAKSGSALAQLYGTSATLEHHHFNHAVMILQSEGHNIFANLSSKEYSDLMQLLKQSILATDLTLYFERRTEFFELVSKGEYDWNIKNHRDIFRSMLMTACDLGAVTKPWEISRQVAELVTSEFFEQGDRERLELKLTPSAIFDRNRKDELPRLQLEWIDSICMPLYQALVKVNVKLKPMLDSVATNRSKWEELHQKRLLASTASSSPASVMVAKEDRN
Sequence of cGMP-dependent 3',5'-cyclic phosphodiesterase (Homo sapiens) (O00408 whole entry): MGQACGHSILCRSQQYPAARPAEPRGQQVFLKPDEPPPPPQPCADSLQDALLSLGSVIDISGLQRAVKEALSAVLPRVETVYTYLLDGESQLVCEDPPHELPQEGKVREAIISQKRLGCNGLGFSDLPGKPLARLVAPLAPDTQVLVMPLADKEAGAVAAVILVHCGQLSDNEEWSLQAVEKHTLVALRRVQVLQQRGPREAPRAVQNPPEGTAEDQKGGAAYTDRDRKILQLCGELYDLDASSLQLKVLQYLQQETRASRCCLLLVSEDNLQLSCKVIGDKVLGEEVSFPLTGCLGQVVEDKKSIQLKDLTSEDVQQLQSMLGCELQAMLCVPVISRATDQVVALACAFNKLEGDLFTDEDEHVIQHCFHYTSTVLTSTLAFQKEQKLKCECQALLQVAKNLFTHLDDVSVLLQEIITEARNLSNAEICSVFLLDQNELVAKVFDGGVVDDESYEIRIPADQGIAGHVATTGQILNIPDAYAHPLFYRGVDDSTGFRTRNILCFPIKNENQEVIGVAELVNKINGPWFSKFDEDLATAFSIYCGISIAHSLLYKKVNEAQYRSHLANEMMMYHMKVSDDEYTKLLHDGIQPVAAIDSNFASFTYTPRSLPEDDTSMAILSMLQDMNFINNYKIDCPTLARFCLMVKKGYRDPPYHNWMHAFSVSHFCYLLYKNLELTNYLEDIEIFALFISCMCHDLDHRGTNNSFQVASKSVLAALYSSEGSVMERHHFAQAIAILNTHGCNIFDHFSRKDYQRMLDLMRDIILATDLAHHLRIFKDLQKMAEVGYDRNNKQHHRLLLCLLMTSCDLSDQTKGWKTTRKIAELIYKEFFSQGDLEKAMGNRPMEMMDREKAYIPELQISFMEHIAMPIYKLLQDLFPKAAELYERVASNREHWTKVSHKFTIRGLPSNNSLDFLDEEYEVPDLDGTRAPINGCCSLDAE
Sequence of cGMP-inhibited 3',5'-cyclic phosphodiesterase 3A (Homo sapiens) (Q14432 whole entry): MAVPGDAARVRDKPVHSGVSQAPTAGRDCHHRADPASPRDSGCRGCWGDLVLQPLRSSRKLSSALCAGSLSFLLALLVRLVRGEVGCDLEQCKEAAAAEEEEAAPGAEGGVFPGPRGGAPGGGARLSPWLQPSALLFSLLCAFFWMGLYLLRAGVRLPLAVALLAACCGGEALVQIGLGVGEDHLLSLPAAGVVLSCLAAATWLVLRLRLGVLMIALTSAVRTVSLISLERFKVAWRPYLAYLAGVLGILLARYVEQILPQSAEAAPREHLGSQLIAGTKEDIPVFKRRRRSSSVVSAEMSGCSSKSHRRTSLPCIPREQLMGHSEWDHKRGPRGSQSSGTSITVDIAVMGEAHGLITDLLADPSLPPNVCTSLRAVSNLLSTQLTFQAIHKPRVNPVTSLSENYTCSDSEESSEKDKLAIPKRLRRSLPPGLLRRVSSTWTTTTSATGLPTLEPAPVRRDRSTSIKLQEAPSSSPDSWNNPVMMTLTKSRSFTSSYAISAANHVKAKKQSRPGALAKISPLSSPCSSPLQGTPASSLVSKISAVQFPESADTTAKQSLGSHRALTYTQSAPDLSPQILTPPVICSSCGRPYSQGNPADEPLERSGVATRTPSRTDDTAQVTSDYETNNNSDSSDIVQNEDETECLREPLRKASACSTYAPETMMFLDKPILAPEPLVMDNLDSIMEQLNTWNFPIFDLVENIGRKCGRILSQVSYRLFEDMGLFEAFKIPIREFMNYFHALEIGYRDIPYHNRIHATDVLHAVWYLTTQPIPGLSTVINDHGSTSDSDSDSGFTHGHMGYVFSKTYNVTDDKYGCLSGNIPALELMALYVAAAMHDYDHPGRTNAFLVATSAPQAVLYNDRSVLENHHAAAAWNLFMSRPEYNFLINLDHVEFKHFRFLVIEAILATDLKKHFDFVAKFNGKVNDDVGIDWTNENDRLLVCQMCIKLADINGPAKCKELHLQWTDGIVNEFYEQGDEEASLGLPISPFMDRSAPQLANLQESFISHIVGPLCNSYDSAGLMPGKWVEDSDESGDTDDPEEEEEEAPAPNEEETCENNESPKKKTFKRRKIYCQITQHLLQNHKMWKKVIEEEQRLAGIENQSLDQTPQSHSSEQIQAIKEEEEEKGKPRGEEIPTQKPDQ
Sequence of 3',5'-cyclic-AMP phosphodiesterase 4D (Homo sapiens) (Q08499 whole entry): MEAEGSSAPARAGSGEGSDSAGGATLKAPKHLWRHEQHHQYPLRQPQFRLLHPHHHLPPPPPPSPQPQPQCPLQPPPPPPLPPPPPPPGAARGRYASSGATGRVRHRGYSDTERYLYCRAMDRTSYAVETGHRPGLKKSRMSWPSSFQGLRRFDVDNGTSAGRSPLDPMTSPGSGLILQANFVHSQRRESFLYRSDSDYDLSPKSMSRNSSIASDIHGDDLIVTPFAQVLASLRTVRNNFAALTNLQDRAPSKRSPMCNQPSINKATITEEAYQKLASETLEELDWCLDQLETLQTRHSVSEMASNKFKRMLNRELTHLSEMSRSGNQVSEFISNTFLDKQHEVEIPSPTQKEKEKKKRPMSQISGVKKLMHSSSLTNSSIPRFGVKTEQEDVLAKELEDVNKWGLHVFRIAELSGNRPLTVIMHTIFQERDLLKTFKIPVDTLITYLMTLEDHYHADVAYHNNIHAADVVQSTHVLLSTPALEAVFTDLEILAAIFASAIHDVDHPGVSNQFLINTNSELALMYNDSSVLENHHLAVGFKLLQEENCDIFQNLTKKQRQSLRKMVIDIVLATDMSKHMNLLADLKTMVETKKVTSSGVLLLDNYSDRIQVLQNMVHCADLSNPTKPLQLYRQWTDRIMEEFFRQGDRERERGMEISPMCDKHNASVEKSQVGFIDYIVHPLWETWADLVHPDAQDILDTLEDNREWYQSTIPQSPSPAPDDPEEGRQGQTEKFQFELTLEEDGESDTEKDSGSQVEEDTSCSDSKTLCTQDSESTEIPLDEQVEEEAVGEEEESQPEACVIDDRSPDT

As to `Cc1cc(-c2nc(C)c3sc4cc(OCc5ccc6ccccc6n5)ccc4n23)ccn1`, the remaining at 1 h in data set [1] is 5%; in data set [2], 19%. For the same molecule, in data set [3], the IC50 came out at 8.73 nM.

For `Cc1nc2sc3cc(OCc4ccc5ccccc5n4)ccc3n2c1-c1ccncc1`, the IC50 in [3] turned out to be 351 nM.

In the case of `Cc1nc([C@]23COC[C@H]2C3)n2c1sc1cc(OCc3ccc4ccccc4n3)ccc12`, the concentration at 0.5 h in [4] worked out at 732 ng/g; in data set [5] it was 394 ng/mL. Besides, the remaining at 1 h in data set [1] came to 44%; in [2], 70%. In addition, the Kp at 0.5 h in [6] was found to be 1.86. Also, in data set [3], the IC50 was 5.12 nM.

For `Cc1nc(C2CNC2)n2c1sc1cc(OCc3ccc4ccccc4n3)ccc12`, the remaining at 1 h stood at 100% in data set [1] and 80% in data set [2]. Besides, the IC50 in data set [3] was 157 nM.

As for `c1ccc2nc(COc3ccc4c(c3)sc3nnc(-c5ccncc5)n34)ccc2c1`, in data set [3], the IC50 came to 666 nM.

Turning to `CC(=O)N1CC(c2nc(C)c3sc4cc(OCc5ccc6ccccc6n5)ccc4n23)C1`, the concentration at 0.5 h in data set [4] turned out to be 62 ng/g; in [5], 137 ng/mL. For the same molecule, the remaining at 1 h amounted to 50% in data set [1] and 42% in data set [2]. In addition, the Kp at 0.5 h in [6] worked out at 0.45. The IC50 in [3] stood at 6.73 nM.

Turning to `CC(=O)N1CCC(c2nc(C)c3sc4cc(OCc5ccc6ccccc6n5)ccc4n23)CC1`, the concentration at 0.5 h came to 165 ng/g in data set [4] and 396 ng/mL in data set [5]. Also, the remaining at 1 h worked out at 76% in data set [1] and 48% in data set [2]. Further, the Kp at 0.5 h in data set [6] is 0.42. Moreover, the IC50 in data set [3] was 8.96 nM.

With `Cc1nc2n(c(=O)c1CCN1CCC(c3noc4cc(F)ccc34)CC1)CCCC2` [RISPERIDONE], in [7], the inhibition in vivo at 1 mg/kg was determined as 72%.

For `Cc1nc(-c2ccncc2)n2c1sc1cc(OCc3ccc4ccccc4n3)ccc12`, the Ratio IC50 in data set [8], in [9], in data set [10], in [14], in data set [16] and in data set [18] was greater than 500 in each case. Moreover, the Ratio IC50 in data set [21], in data set [23] and in data set [24] was greater than 500 in each case. Besides, the inhibition in [11] was 26%; in [12] it was 34%; in data set [13], 42.3%; in data set [15], 67.2%; in data set [17] it was 0%; in data set [19] it was 22.8%. Also, the figures for the inhibition in data set [20] and in data set [22] were 27.1% and 21.4%, respectively. Also, the values for the remaining at 1 h in data set [1] and in [2] were 5% and 22%, respectively. In data set [3], the IC50 was determined as 4.85 nM.

`Cc1nc(-c2ccnnc2)n2c1sc1cc(OCc3ccc4ccccc4n3)ccc12`: the remaining at 1 h in [1] amounted to 30%; in [2], 3%. Besides, the IC50 in data set [3] is 13.9 nM.

With `Cc1nc(C)c(-c2nc(C)c3sc4cc(OCc5ccc6ccccc6n5)ccc4n23)s1`, the remaining at 1 h in [1] stood at 3%; in data set [2] it was 20%. Also, the IC50 in data set [3] turned out to be 0.9 nM.

Turning to `Cc1nc([C@@]23COC[C@@H]2C3)n2c1sc1cc(OCc3ccc4ccccc4n3)ccc12`, the concentration at 0.5 h in data set [4] came to 430 ng/g; in data set [5], 164 ng/mL. Further, the remaining at 1 h in [1] was determined as 37%; in data set [2], 60%. Further, in data set [6], the Kp at 0.5 h stood at 2.62. The IC50 in [3] worked out at 6.88 nM.

Take `Cc1nc(C2CCOC2)n2c1sc1cc(OCc3ccc4ccccc4n3)ccc12` (configuration not stated): the figures for the remaining at 1 h in data set [1] and in [2] were 45% and 37%, respectively. Moreover, the IC50 in data set [3] is 18.5 nM.

(Values after ChEMBL document CHEMBL3091421, “Discovery of benzo[d]imidazo[5,1-b]thiazole as a new class of phosphodiesterase 10A inhibitors” (Bioorg Med Chem Lett, 2013).)
